Reference: publication PMC2362906, “Effects of new 17α-hydroxylase/C17,20-lyase inhibitors on LNCaP prostate cancer cell growth in vitro and in vivo” (British Journal of Cancer, 1999)

Columns and labels:
[1] = system: LNCaP cells; assay: DHT-stimulated wild-type LNCaP cell growth; type: cell-based, human; conditions: 0.03 nM DHT, 9 days
From the text: (§1) Prostate cancer is the most common malignancy and the second leading cause of cancer-related deaths among men in the US and the UK (Shibata et al, 1998). […] Steroidal 17-hydroxylase/C17,20 -lyase (P450c17) (EC 1.14.99.0) was selected as the target enzyme for inhibition, as this is a key regulatory enzyme of androgen synthesis. P450c17 catal- yses two sequential reactions in the steroid biosynthetic pathway and converts pregnenolone and progesterone to the C-19 andro- gens, dehydroepiandrosterone and androstenedione respectively. This enzyme has an identical amino acid sequence in testicular and adrenal tissues (Chung et al, 1987). […] In order to evaluate the effectiveness of these inhibitors we developed a multi-step system, which utilized the LNCaP human prostate cancer cell line. LNCaP cells remain the only androgen receptor (AR)-positive prostate cancer cell line, that can be readily grown in tissue culture (Horoszewicz et al, 1983). These cells respond to androgens with increased cell proliferation and elevated expression of prostate specific antigen (PSA) (Berns et al, 1993). LNCaP cells at early passages are not only androgen-responsive, but also androgen- dependent (Pousette et al, 1997). This is similar to the situation in most tumours of prostatic cancer patients, which are initially highly responsive and dependent on androgens. […] Therefore, we employed LNCaP cells as a model for evaluating the effectiveness of our new inhibitors of androgen synthesis. In this study the compounds selected for evaluation were two groups of azolyl steroids. […] Here we report on the application of LNCaP-CYP17-transfected cells for determining the inhibitory potencies of the new compounds against the P450c17 enzyme. […] We designed and evaluated two groups of azolyl steroids: 5-non-competitive inhibitors (5NCIs), VN/63-1, VN/85-1, VN/87-1 and their corresponding 4 derivatives (4NCIs), VN/107-1, VN/108-1 and VN/109-1. The human P450c17 gene was transfected into LNCaP human prostate cancer cells, and the resultant LNCaP- CYP17 cells were utilized to evaluate the inhibitory potency of the new azolyl steroids. […] We further evaluated our inhibitors in male severe combined immuno- deficient mice bearing LNCaP tumour xenografts. […] We also utilized wild-type LNCaP prostatic carcinoma cells for evaluating the direct effects of new azolyl steroids on proliferation of these cells in vitro and in vivo. MATERIALS AND METHODS Materials The human prostate cancer cell line LNCaP was obtained from the American Type Culture Collection (Rockville, MD, USA). RPMI- 1640 medium, trypsin-EDTA (0.25%/0.02%), penicillin/strepto- mycin (P/S), geniticin (G418), and LipofectAMINE were from Gibco-BRL (Grand Island, NY, USA). Fetal bovine serum (FBS) was obtained from Summit Biotechnology Inc. (Fort Collins, CO, USA) and steroid-free FBS was prepared as described previously (Klus et al, 1996). Phenol red free IMEM and trypsin-versine were purchased from Biofluids Inc. (Rockville, MD, USA). Chloroform and acetonitrile were purchased from JT Baker, Inc (Phillipsburg, NJ, USA). Hydroxypropyl cellulose (HPC) was purchased from Sigma Chemical Co. (St Louis, MO, USA). The PSA enzyme- linked immunusorbent assay (ELISA) kit was from DSL Inc. (Webster, TX, USA). Matrigel was generously supplied by Dr Hynda Kleinman (NIH, Bethesda, MD, USA). Inhibitors of androgen synthesis: VN/63-1, VN/85-1, VN/87-1, VN/107-1, VN/108-1 and VN/109-1 were synthesized in our labo- ratory as previously described (Njar et al, 1998). […] Metribolone [17-methyl-3 H]-R1881 ([3 H]-R1881: specific activity 86 Ci mmol-1 ) was purchased from Dupont NEN (Boston, MA, USA).

[2] = system: serum testosterone; assay: Serum testosterone (RIA) in SCID mice; type: in vivo, male SCID mice; conditions: 28 days of treatment, 50 mg kg-1 day-1
From the text: as §1

[3] = system: serum PSA; assay: Serum PSA (ELISA) in LNCaP tumour-bearing SCID mice; type: in vivo, male SCID mice; conditions: 50 mg kg-1 day-1, 28 days
From the text: (§2) Prostate cancer is the most common malignancy and the second leading cause of cancer-related deaths among men in the US and the UK (Shibata et al, 1998). […] Steroidal 17-hydroxylase/C17,20 -lyase (P450c17) (EC 1.14.99.0) was selected as the target enzyme for inhibition, as this is a key regulatory enzyme of androgen synthesis. P450c17 catal- yses two sequential reactions in the steroid biosynthetic pathway and converts pregnenolone and progesterone to the C-19 andro- gens, dehydroepiandrosterone and androstenedione respectively. This enzyme has an identical amino acid sequence in testicular and adrenal tissues (Chung et al, 1987). […] In order to evaluate the effectiveness of these inhibitors we developed a multi-step system, which utilized the LNCaP human prostate cancer cell line. LNCaP cells remain the only androgen receptor (AR)-positive prostate cancer cell line, that can be readily grown in tissue culture (Horoszewicz et al, 1983). These cells respond to androgens with increased cell proliferation and elevated expression of prostate specific antigen (PSA) (Berns et al, 1993). LNCaP cells at early passages are not only androgen-responsive, but also androgen- dependent (Pousette et al, 1997). This is similar to the situation in most tumours of prostatic cancer patients, which are initially highly responsive and dependent on androgens. […] Therefore, we employed LNCaP cells as a model for evaluating the effectiveness of our new inhibitors of androgen synthesis. In this study the compounds selected for evaluation were two groups of azolyl steroids. […] Here we report on the application of LNCaP-CYP17-transfected cells for determining the inhibitory potencies of the new compounds against the P450c17 enzyme. […] We designed and evaluated two groups of azolyl steroids: 5-non-competitive inhibitors (5NCIs), VN/63-1, VN/85-1, VN/87-1 and their corresponding 4 derivatives (4NCIs), VN/107-1, VN/108-1 and VN/109-1. The human P450c17 gene was transfected into LNCaP human prostate cancer cells, and the resultant LNCaP- CYP17 cells were utilized to evaluate the inhibitory potency of the new azolyl steroids. […] We further evaluated our inhibitors in male severe combined immuno- deficient mice bearing LNCaP tumour xenografts. […] We also utilized wild-type LNCaP prostatic carcinoma cells for evaluating the direct effects of new azolyl steroids on proliferation of these cells in vitro and in vivo. MATERIALS AND METHODS Materials The human prostate cancer cell line LNCaP was obtained from the American Type Culture Collection (Rockville, MD, USA). RPMI- 1640 medium, trypsin-EDTA (0.25%/0.02%), penicillin/strepto- mycin (P/S), geniticin (G418), and LipofectAMINE were from Gibco-BRL (Grand Island, NY, USA). Fetal bovine serum (FBS) was obtained from Summit Biotechnology Inc. (Fort Collins, CO, USA) and steroid-free FBS was prepared as described previously (Klus et al, 1996). Phenol red free IMEM and trypsin-versine were purchased from Biofluids Inc. (Rockville, MD, USA). Chloroform and acetonitrile were purchased from JT Baker, Inc (Phillipsburg, NJ, USA). Hydroxypropyl cellulose (HPC) was purchased from Sigma Chemical Co. (St Louis, MO, USA). The PSA enzyme- linked immunusorbent assay (ELISA) kit was from DSL Inc. (Webster, TX, USA). Matrigel was generously supplied by Dr Hynda Kleinman (NIH, Bethesda, MD, USA). […]

[4] = molecular target: T1, human 17α-hydroxylase/C17,20-lyase (P450c17) expressed in LNCaP-CYP17 cells (Homo sapiens, UniProt P05093); assay: [3H]-acetic acid releasing assay (AARA) with LNCaP-CYP17 cells; type: cell-based; conditions: LNCaP-CYP17 cells, 7 μM [21-3H]17-OHP5, 16 h; mean ± s.e.m., three experiments
T1 sequence (P05093 9-508 limits assumed): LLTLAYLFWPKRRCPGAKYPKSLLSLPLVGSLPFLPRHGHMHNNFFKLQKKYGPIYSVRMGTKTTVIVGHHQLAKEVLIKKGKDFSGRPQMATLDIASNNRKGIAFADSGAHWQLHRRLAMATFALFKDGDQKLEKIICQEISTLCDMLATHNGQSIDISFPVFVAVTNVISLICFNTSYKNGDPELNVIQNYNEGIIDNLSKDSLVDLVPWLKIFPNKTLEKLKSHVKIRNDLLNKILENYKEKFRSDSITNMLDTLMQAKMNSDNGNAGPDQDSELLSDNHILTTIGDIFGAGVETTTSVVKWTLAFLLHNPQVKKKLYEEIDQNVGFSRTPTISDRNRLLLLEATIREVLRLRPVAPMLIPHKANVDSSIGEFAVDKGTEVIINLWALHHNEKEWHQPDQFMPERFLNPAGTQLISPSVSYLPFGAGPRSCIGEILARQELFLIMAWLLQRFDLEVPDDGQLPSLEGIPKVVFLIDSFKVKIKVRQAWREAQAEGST

[5] = system: serum DHT; assay: Serum DHT (RIA) in SCID mice; type: in vivo, male SCID mice; conditions: 28 days of treatment, 50 mg kg-1 day-1
From the text: as §1

[6] = system: LNCaP cells; assay: LNCaP cell growth in steroid-free medium; type: cell-based, human
From the text: as §2, with “USA).” for “USA). Fetal bovine serum (FBS) was obtained from Summit Biotechnology Inc. (Fort Collins, CO, USA) and steroid-free FBS was prepared as described previously (Klus et al, 1996). Phenol red free IMEM and trypsin-versine were purchased from Biofluids Inc. (Rockville, MD, USA). Chloroform and acetonitrile were purchased from JT Baker, Inc (Phillipsburg, NJ, USA). Hydroxypropyl cellulose (HPC) was purchased from Sigma Chemical Co. (St Louis, MO, USA). The PSA enzyme- linked immunusorbent assay (ELISA) kit was from DSL Inc. (Webster, TX, USA). Matrigel was generously supplied by Dr Hynda Kleinman (NIH, Bethesda, MD, USA).”

[7] = system: LNCaP tumour xenografts; assay: LNCaP tumour xenograft growth in male SCID mice; type: in vivo; conditions: 50 mg kg-1 day-1, 28 days
From the text: as §1

[8] = molecular target: human prostatic 5-reductase; design: method as in Njar et al, 1998; conditions: human prostatic microsomes; reported previously; ref Njar et al, 1998; cited from earlier work
[9] = system: LNCaP cells; assay: Testosterone-stimulated wild-type LNCaP cell growth; type: cell-based, human; conditions: 0.1 nM testosterone; for Effect on testosterone-stimulated cell growth (words): 0.5-5.0 μM compound
From the text: as §1

[10] = Table 2, first experiment, control 1.043
[11] = Table 3, second experiment, control 0.205
[12] = Table 2, first experiment, control 243.8
[13] = Table 3, second experiment, control 239.2

C[C@]12CCC(=O)C[C@@H]1CC[C@@H]1[C@@H]2CC[C@]2(C)[C@@H](O)CC[C@@H]12 [DHT, Dihydrotestosterone, reference compound]
Stimulation of LNCaP cell proliferation compared to vehicle-treated cells [1]: 3.2 fold

CC(C)(C)NC(=O)[C@H]1CC[C@H]2[C@@H]3CC[C@H]4NC(=O)C=C[C@]4(C)[C@H]3CC[C@]12C [Finasteride, reference compound]
Serum Testosterone [2, 10]: 1.389 ng/mL
Serum Testosterone [2, 11]: 0.638 ng/mL
Serum PSA levels versus control ([3]; first experiment): significantly lower
Serum PSA levels versus control ([3]; second experiment): significantly lower
IC50 [4]: > 5 µM
Serum DHT [5, 12]: 137.0 pg/mL
Serum DHT [5, 13]: 223.4 pg/mL
inhibition at 5 µM ([6]; Homo sapiens, LNCaP, 5 μM concentration): 25%
Inhibition of LNCaP cell growth in steroid-free media ([6]; concentrations of 1.0-5.0 μM, 9 days): 20-30%
Reduction of tumour weights compared to vehicle-treated mice ([7]; first experiment): 22%
Inhibition of LNCaP tumour growth (tumour volume) ([7]; second experiment): 29%
Reduction of tumour weights ([7]; second experiment): 28%
IC50 [8]: 0.033 µM

CC(C)C(=O)Nc1ccc([N+](=O)[O-])c(C(F)(F)F)c1 [Flutamide, reference compound]
Inhibition of testosterone stimulated cell growth ([9]; compound at 2.5 and 5.0 μM): ~ 50%
IC50 [4]: > 5 µM
Stimulation of cell growth compared to DHT-treated cells [1]: 10-20%

CC(=O)N1CCN(c2ccc(OCC3COC(Cn4ccnc4)(c4ccc(Cl)cc4Cl)O3)cc2)CC1 (stereo not shown) [Ketoconazole, reference compound]
Serum Testosterone [2, 10]: 1.526 ng/mL
Serum Testosterone [2, 11]: 0.298 ng/mL
Effect on testosterone-stimulated cell growth (words) ([9]; 9 days): stimulate cell proliferation at low concentrations
Effect on testosterone-stimulated cell growth (words) ([9]; 9 days, listed as ketoconazole): biphasic growth responses
Serum DHT [5, 12]: 224.3 pg/mL
Serum DHT [5, 13]: 218.0 pg/mL
Stimulation of LNCaP cell growth in steroid-free media ([6]; high concentrations (2.5 and 5.0 μM), 9 days): 30-40%
Effect on tumour growth (words) ([7]; second experiment): Neither VN/63-1, VN/107 nor ketoconazole had any appreciable effects
IC50 [8]: > 5 µM
Stimulation of cell growth compared to DHT-treated cells [1]: 10-20%

C[C@]12CC[C@H]3[C@@H](CCC4=CC(=O)CC[C@@]43C)[C@@H]1CC[C@@H]2O [Testosterone, reference compound]
Stimulation of LNCaP cell proliferation compared to vehicle-treated control cells ([9]; 9 days): 5.8 fold
